One data set concerns the target PPAR delta (Homo sapiens (Human), UniProt Q03181). The data set can be described thus: PPARδ activity screen: GAL4-PPARδ LBD transactivation luciferase reporter in CV-1 cells. Type of data set: cell-based. How it is done:
CV-1 cells were grown in DMEM+10% charcoal stripped FCS. Cells were seeded into 384-well plates the day before transfection to give a confluency of 50-80% at transfection. A total of […] containing 0.64 micrograms pCMX-PPARDelta LBD, 0.1 micrograms pCMXβGal, 0.08 micrograms pGLMH2004 reporter and 0.02 micrograms pCMX empty vector was transfected per well using FuGene transfection reagent according to the manufacturer's instructions (Roche). Cells were allowed to express protein for 48 h followed by addition of compound.
Human PPARδ was used to PCR amplify the PPARδ LBD. […] Ensuing fusions were verified by sequencing.
All compounds were dissolved in DMSO and diluted 1:1000 upon addition to the cells. Compounds were tested in quadruple in concentrations ranging from 0.001 to 100 μM. Cells were treated with compound for 24 h followed by luciferase assay. Each compound was tested in at least two separate experiments.
Medium including test compound was aspirated and washed with PBS. 50 μl PBS including 1 mM Mg++ and Ca++ were then added to each well. The luciferase assay was performed using the LucLite kit according to the manufacturer's instructions (Packard Instruments). Light emission was quantified by counting on a Perkin Elmer Envision reader. […] Beta-galactosidase assays were performed in the microwell plates using a kit from Promega and read in a Perkin Elmer Envision reader. The beta-galactosidase data were used to normalize (transfection efficiency, cell growth etc.) the luciferase data.
The activity of a compound is calculated as fold induction compared to an untreated sample. For each compound the efficacy (maximal activity) is given as a relative activity compared to GW501516, a PPARδ agonist. […] EC50 values were calculated via non-linear regression usingGraphPad PRISM (GraphPad Software, San Diego, Calif.).
In general terms: Reporter assays use an easily measured gene product as a stand-in for the process of interest.

Data set [1] has as its system Sprague-Dawley rat acute kidney injury. The data set can be described thus: Ischemia-reperfusion kidney injury in rats, plasma creatinine. Type of data set: in vivo. To be noted: 30 mg/kg orally 4 hours after surgery, blood 24 hours after reperfusion, FIG. 11. The procedure:
Sprague-Dawley male rats approximately 280-300 g, with ad libitum access to standard feed and water were used in these experiments. Rats were anesthetized with isoflurane and placed ventrally on a temperature controlled heated surgical platform. A skin incision was made on the dorsal surface, exposing both kidneys through flank incisions. Vascular clips were applied to both renal pedicles and occlusion lasted 45 minutes. After 45 min, the clips were removed, kidneys were monitored for successful reperfusion, and surgical sites were sutured. The sham group was subjected to similar surgical procedures, except that the occluding clamps were not applied. Four independent studies, testing each compound were performed. Compounds were formulated as a fresh daily suspension in 0.25% sodium carboxymethyl-cellulose, 0.25% Tween-80 in purified water. Compounds were dosed orally at 30 mg/kg 4 hours after animals awoke from surgery and sham surgery and IRI control animals were similarly dosed with vehicle.
Twenty-four (24) hours after reperfusion, blood was collected in K2 EDTA tubes by retro-orbital bleeding from all groups under mild isoflurane anesthesia. Plasma was separated by centrifugation at 3000 rpm for 10 minutes at 4° C. Plasma creatinine was analyzed using a fully automated clinical biochemistry analyzer (Siemens Dimension® Xpand® Plus Integrated Chemistry System)
Creatinine was tested for normal distribution in all groups via a D'Agostino-Pearson omnibus normality test and a Shapiro-Wilk normality test. Normally distributed data was subjected to an unpaired, two-tailed t test. Non-normally distributed data was subjected to a Mann-Whitney test (non-parametric). Statistical significance is determined by p<0.05 of IRI-vehicle compared to compound treated groups.

Data set [2] in a line: Pharmacokinetic (PK) screening (i.v.) in male CD1 mice. The class given is in vivo, mouse. To be noted: for clearance: male, CD1, mouse, plasma, iv. How it is done: In this example, the intravenous PK profile of several PPARδ agonists disclosed herein in male CD1 mice was determined. Similar methods can be used to analyze other compounds provided herein. All compounds were administered separately to CD1 mice at 1 mg/kg (i.v.), except the comparator compound to 2c was administered at 3 mg/kg (i.v.), as noted below.

Setting [3] is: CV-1 cells, 24 h compound treatment, luciferase, read-out: PPAR delta transactivation EC50.
Where [4] appears, read: 1 mg/kg, I.V. 1 mg/kg dose, read-out: CL.
[5] abbreviates: 1 mg/kg, I.V. 1 mg/kg dose, read-out: High or Low CL.

Where two headings read alike, the source gives them in different places.

These results are taken from patent US10399958B2, “PPAR agonists, compounds, pharmaceutical compositions, and methods of use thereof” (Mitobridge, Inc., priority 2015, dated 2019).

Chain of PPAR delta (Q03181 128-441 limits assumed): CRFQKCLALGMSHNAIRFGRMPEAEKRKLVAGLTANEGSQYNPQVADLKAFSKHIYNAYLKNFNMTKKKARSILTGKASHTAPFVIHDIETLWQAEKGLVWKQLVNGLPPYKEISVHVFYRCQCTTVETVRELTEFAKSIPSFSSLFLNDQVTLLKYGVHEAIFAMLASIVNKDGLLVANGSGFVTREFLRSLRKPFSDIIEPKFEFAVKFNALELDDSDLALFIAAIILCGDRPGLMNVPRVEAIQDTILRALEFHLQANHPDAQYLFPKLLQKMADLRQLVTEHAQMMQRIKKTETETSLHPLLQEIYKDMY

Take `Cc1cnc(-c2ccc(C(F)(F)F)cc2)n1Cc1ccccc1OCCCCCC(=O)O` [Comparator Compound 1, reference compound]: the EC50 at PPAR delta (setting [3]) came to 0.1 nM.
Take `Cc1cnc(-c2ccc(C(F)(F)F)nc2)n1Cc1ccccc1OCCCCCC(=O)O` [Comparator Compound 2, reference compound]: at PPAR delta (setting [3]), the EC50 stood at 3.8 nM.
Consider `Cc1cnc(-c2ccc(OC(F)(F)F)cc2)n1Cc1ccccc1OCCC[C@@H](C)CC(=O)O` [Compound 2a, (R)-3-methyl-6-(2-((5-methyl-2-(4-(trifluoromethoxy)phenyl)-1H-imidazol-1-yl)methyl)phenoxy)hexanoic acid], for which the Plasma creatinine result in data set [1] was “reduce plasma creatinine”. For the same compound, the EC50 on PPAR delta turned out to be 1 nM. The clearance in data set [2] (setting [4]) is 33 mL/min/kg; in data set [2] (setting [5]), below 85 mL/min/kg.
Take `Cc1cnc(-c2ccc(Cl)cc2)n1Cc1ccccc1OCCC[C@@H](C)CC(=O)O` [Compound 2b, (R)-6-(2-((2-(4-chlorophenyl)-5-methyl-1H-imidazol-1-yl)methyl)phenoxy)-3-methylhexanoic acid]: the EC50 at PPAR delta stood at 7.8 nM. The clearance in data set [2] (setting [4]) is 22 mL/min/kg; in data set [2] (setting [5]) it was below 85 mL/min/kg.
For `Cc1cnc(-c2ccc(-c3ccco3)cc2)n1Cc1ccccc1OCCC[C@@H](C)CC(=O)O` [Compound 2c, (R)-6-(2-((2-(4-(furan-2-yl)phenyl)-5-methyl-1H-imidazol-1-yl)methyl)phenoxy)-3-methylhexanoic acid], at PPAR delta (setting [3]), the EC50 is 3.7 nM. For the same compound, the clearance is 73 mL/min/kg in data set [2] (setting [4]) and below 85 mL/min/kg in data set [2] (setting [5]).
The matching figures for `C/C(=C\COc1ccccc1Cn1c(C)cnc1-c1ccc(OC(F)(F)F)cc1)CCC(=O)O` [Compound 2e, (E)-4-methyl-6-(2-((5-methyl-2-(4-(trifluoromethoxy)phenyl)-1H-imidazol-1-yl)methyl)phenoxy)hex-4-enoic acid]: 0.2 nM, 70 mL/min/kg and below 85 mL/min/kg.
Take `Cc1ccc(-c2ncc(C)n2Cc2ccccc2OCCC[C@@H](C)CC(=O)O)cc1` [Compound 2f, (R)-3-methyl-6-(2-((5-methyl-2-(p-tolyl)-1H-imidazol-1-yl)methyl)phenoxy) hexanoic acid]: the EC50 on PPAR delta is 24.3 nM.
`Cc1cnc(-c2ccc(F)cc2)n1Cc1ccccc1OCCC[C@@H](C)CC(=O)O` [Compound 2g, (R)-6-(2-((2-(4-fluorophenyl)-5-methyl-1H-imidazol-1-yl)methyl)phenoxy)-3-methylhexanoic acid]: the EC50 on PPAR delta (setting [3]) is 39 nM.
As to `Cc1cnc(-c2ccc(C(F)(F)F)c(F)c2)n1Cc1ccccc1OCCCCC(C)(C)C(=O)O` [Compound 2h, 6-(2-((2-(3-fluoro-4-(trifluoromethyl)phenyl)-5-methyl-1H-imidazol-1-yl)methyl)phenoxy)-2,2-dimethylhexanoic acid], at PPAR delta (setting [3]), the EC50 was 3.5 nM. Also, the clearance was 25 mL/min/kg in data set [2] (setting [4]) and below 85 mL/min/kg in data set [2] (setting [5]).
In the case of `Cc1cnc(-c2ccc(Cl)c(F)c2)n1Cc1ccccc1OCCCCC(C)(C)C(=O)O` [Compound 2i, 6-(2-((2-(4-chloro-3-fluorophenyl)-5-methyl-1H-imidazol-1-yl)methyl)-phenoxy)-2,2-dimethylhexanoic acid], the EC50 on PPAR delta (setting [3]) stood at 18.8 nM.
For `Cc1cnc(-c2ccc(Cl)c(F)c2)n1Cc1ccccc1OCCC[C@@H](C)CC(=O)O` [Compound 2j, (R)-6-(2-((2-(4-chloro-3-fluorophenyl)-5-methyl-1H-imidazol-1-yl)methyl)phenoxy)-3-methylhexanoic acid], the EC50 at PPAR delta (setting [3]) amounted to 0.8 nM. Further, the clearance was 38 mL/min/kg in data set [2] (setting [4]) and below 85 mL/min/kg in data set [2] (setting [5]).
`Cc1cnc(-c2ccc(C(F)(F)F)cc2)n1Cc1cc(F)ccc1OCCC[C@@H](C)CC(=O)O` [Compound 2k, (R)-6-(4-fluoro-2-((5-methyl-2-(4-(trifluoromethyl)phenyl)-1H-imidazol-1-yl)methyl)phenoxy)-3-methylhexanoic acid]: the EC50 on PPAR delta (setting [3]) is 6.6 nM. Also, the clearance was 17 mL/min/kg in data set [2] (setting [4]) and below 85 mL/min/kg in data set [2] (setting [5]).
On to `Cc1cnc(-c2ccc(OC(F)F)cc2)n1Cc1ccccc1OCCC[C@@H](C)CC(=O)O` [Compound 2l, (R)-6-(2-((2-(4-(difluoromethoxy)phenyl)-5-methyl-1H-imidazol-1-yl)methyl)phenoxy)-3-methylhexanoic acid], for which the EC50 at PPAR delta (setting [3]) is 13.5 nM.
On to `Cc1ccc(OCCC[C@@H](C)CC(=O)O)c(Cn2c(C)cnc2-c2ccc(OC(F)(F)F)cc2)c1` [Compound 2m, (R)-3-methyl-6-(4-methyl-2-((5-methyl-2-(4-(trifluoromethoxy)phenyl)-1H-imidazol-1-yl)methyl)phenoxy)hexanoic acid], for which the EC50 on PPAR delta (setting [3]) was found to be 0.5 nM. The clearance in data set [2] (setting [4]) was 85 mL/min/kg; in data set [2] (setting [5]), below 85 mL/min/kg.
Regarding `Cc1cnc(-c2ccc(C(F)(F)F)nc2)n1Cc1ccccc1OCCC[C@@H](C)CC(=O)O` [Compound 2n, (R)-3-methyl-6-(2-((5-methyl-2-(6-(trifluoromethyl)pyridin-3-yl)-1H-imidazol-1-yl)methyl)phenoxy)hexanoic acid], in data set [1], the Plasma creatinine entry was “reduce plasma creatinine”. Besides, the figures for the clearance in data set [2] (setting [4]) and in data set [2] (setting [5]) were 62 mL/min/kg and below 85 mL/min/kg, respectively.
With `Cc1cnc(-c2ccc(C(F)F)cc2)n1Cc1ccccc1OCCC[C@@H](C)CC(=O)O` [Compound 2o, (R)-6-(2-((2-(4-(difluoromethyl)phenyl)-5-methyl-1H-imidazol-1-yl)methyl)phenoxy)-3-methylhexanoic acid], at PPAR delta (setting [3]), the EC50 amounted to 9.9 nM.
On the same count and under the same terms, next, `CSc1ccc(-c2ncc(C)n2Cc2ccccc2OCCC[C@@H](C)CC(=O)O)cc1` [Compound 2p, (R)-3-methyl-6-(2-((5-methyl-2-(4-(methylthio)phenyl)-1H-imidazol-1-yl)methyl)phenoxy)hexanoic acid]: 13.1 nM.
As to `Cc1cnc(-c2ccc(C(F)(F)F)cc2)n1Cc1ccccc1OCCCCC(C)(C)C(=O)O` [Compound 2q, 2,2-dimethyl-6-(2-((5-methyl-2-(4-(trifluoromethyl)phenyl)-1H-imidazol-1-yl)methyl)phenoxy)hexanoic acid], the EC50 at PPAR delta (setting [3]) was 14.3 nM. For the same compound, the clearance in data set [2] (setting [4]) was 11 mL/min/kg; in data set [2] (setting [5]) it was below 85 mL/min/kg.
As for `Cc1cnc(-c2ccc(-c3ccco3)cc2)n1Cc1ccccc1OCCCCCC(=O)O` [comparator compound to 2c, reference compound], the clearance was 270 mL/min/kg in data set [2] (3 mg/kg, 3 mg/kg i.v. dose, read-out: CL) and above 85 mL/min/kg in data set [2] (3 mg/kg, 3 mg/kg i.v. dose, read-out: High or Low CL).
As for `Cc1cnc(-c2ccc(C(F)(F)F)cc2)n1Cc1ccccc1OCCCCCC(=O)O` [comparator compound to 2d, reference compound], the “CL / exposure after i.v. dose (result in words)” value in data set [2] (I.V. 1 mg/kg dose) is “Due to low exposure data could not be measured”.
Consider `Cc1cnc(-c2ccc(OC(F)(F)F)cc2)n1Cc1ccccc1OCCCCCC(=O)O` [comparator compound to 2e, reference compound], for which the figures for the clearance in data set [2] (setting [4]) and in data set [2] (setting [5]) were 185 mL/min/kg and above 85 mL/min/kg, respectively.
Consider `Cc1cnc(-c2ccc(C(F)(F)F)nc2)n1Cc1ccccc1OCCCCCC(=O)O` [comparator compound to 2n, reference compound], for which the “CL / exposure after i.v. dose (result in words)” value in data set [2] (I.V. 1 mg/kg dose) is on record as “Due to low exposure data could not be measured”.
